In patent US10703748B2, “Diazanaphthalen-3-yl carboxamides and preparation and use thereof” (Samumed, LLC, priority 2017, dated 2020):

Columns and labels:
[1] = test system: α-smooth muscle actin (aSMA) positive LL29 cells; test: Inhibition of the fibrotic process: αSMA staining in TGF-β1 treated LL29 fibroblasts from IPF patients; conditions: Homo sapiens, Fibroblast; for EC50: 96 h; for inhibition at 10 µM: read-out: percentage in parentheses after EC50 >10
[2] = test system: SW480 colon carcinoma cells; test: Cell viability assay (CellTiter-Glo); conditions: Homo sapiens; for EC50: SW480, 96 h; for inhibition at 10 µM: SW480, read-out: percent inhibition at 10 μM
DYRK1A kinase = DYRK1A kinase (Homo sapiens, UniProt Q13627); test: DYRK1A kinase activity (Ser/Thr 18 peptide Z-lyte FRET assay); type: biochemical; conditions: recombinant DYRK1A, 30 μM ATP, one hour at room temperature;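 note: kinase activity read as coumarin/fluorescein emission ratio after development step, with unphosphorylated and phosphorylated peptide forms setting 0% and 100% controls, values from dose-response curves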
GSK3β kinase = GSK3β kinase (Homo sapiens, UniProt P49841); test: GSK3β kinase activity (Ser/Thr 09 peptide Z-lyte FRET assay); type: biochemical; conditions: recombinant kinase, 46 μM ATP, one hour at room temperature; read-out: EC50
[3] = test system: Wnt-responsive Sp5-Luc reporter in SW480 colon carcinoma cells; test: Screening assay for Wnt activity (Sp5-Luc reporter gene assay); conditions: Homo sapiens; for EC50: SW480; for inhibition at 10 µM: SW480, read-out: percent inhibition at 10 μM
IL-6 = IL-6 inhibition in LPS-stimulated human peripheral blood mononuclear cells (HTRF); conditions: Homo sapiens, PBMC; for EC50: 22 h; for inhibition at 10 µM: read-out: percentage in parentheses after EC50 >10

GSK3β kinase, sequence (P49841 whole entry): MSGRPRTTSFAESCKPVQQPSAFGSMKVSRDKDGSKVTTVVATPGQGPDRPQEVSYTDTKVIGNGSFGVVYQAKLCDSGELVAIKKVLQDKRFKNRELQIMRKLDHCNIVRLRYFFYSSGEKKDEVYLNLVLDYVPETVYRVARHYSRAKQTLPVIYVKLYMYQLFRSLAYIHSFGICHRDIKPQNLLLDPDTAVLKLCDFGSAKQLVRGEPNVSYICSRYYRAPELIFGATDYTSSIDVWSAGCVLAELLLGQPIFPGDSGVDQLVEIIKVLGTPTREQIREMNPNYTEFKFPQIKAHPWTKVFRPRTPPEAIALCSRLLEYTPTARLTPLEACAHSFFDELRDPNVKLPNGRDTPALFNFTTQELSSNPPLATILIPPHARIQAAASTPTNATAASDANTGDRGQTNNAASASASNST

| Compound | EC50 [1] | inhibition at 10 µM [1] | EC50 [2] | EC50 (DYRK1A kinase) | EC50 (GSK3β kinase) | EC50 [3] | inhibition at 10 µM [3] | EC50 (IL-6) | inhibition at 10 µM (IL-6) | inhibition at 10 µM [2] |
| --- | --- | --- | --- | --- | --- | --- | --- | --- | --- | --- |
| CN1CCCN(c2cc(C(=O)Nc3cc4cc(-c5cn(C)nn5)ncc4cn3)ccn2)CC1 [Compound 4006, 2-(4-Methyl-1,4-diazepan-1-yl)-N-(6-(1-methyl-1H-1,2,3-triazol-4-yl)-2,7-naphthyridin-3-yl)isonicotinamide] | > 10 µM | 5.2% | 7.87 µM | 0.056 µM | 1.47 µM | > 10 µM | 37.7% | > 10 µM | 8.9% | – |
| Cc1ncc(-c2cnc3cnc(NC(=O)c4ccnc(N5CCN(C)CC5)c4)cc3c2)s1 [Compound 3363, 2-(4-Methylpiperazin-1-yl)-N-(3-(2-methylthiazol-5-yl)-1,7-naphthyridin-6-yl)isonicotinamide] | > 10 µM | 34.7% | 3.96 µM | 0.119 µM | 9.99 µM | > 10 µM | 32.9% | > 10 µM | 5.6% | – |
| CN1CCN(c2cc(C(=O)Nc3cc4cc(-c5ccc(N)nc5)cnc4cn3)ccn2)CC1 [Compound 3527, N-(3-(6-Aminopyridin-3-yl)-1,7-naphthyridin-6-yl)-2-(4-methylpiperazin-1-yl)isonicotinamide] | 3.5 µM | – | > 10 µM | 0.294 µM | > 10 µM | > 10 µM | 42.5% | > 10 µM | 0% | 41.8% |
| O=C(Nc1cc2cc(-c3cncc(OCC4CNC4)n3)cnc2cn1)c1ccc(F)cc1 [Compound 3612, N-(3-(6-(Azetidin-3-ylmethoxy)pyrazin-2-yl)-1,7-naphthyridin-6-yl)-4-fluorobenzamide] | 3.9 µM | – | 2.83 µM | 0.487 µM | > 10 µM | 3.92 µM | – | 5.05 µM | – | – |
| CN1CCN(c2cc(C(=O)Nc3cc4cc(-c5cncc(N)c5)ncc4cn3)ccn2)CC1 [Compound 4432, N-(6-(5-Aminopyridin-3-yl)-2,7-naphthyridin-3-yl)-2-(4-methylpiperazin-1-yl)isonicotinamide] | 1.72 µM | – | 2.03 µM | 0.002 µM | > 10 µM | 2 µM | – | > 10 µM | 1.4% | – |
| Cc1ncc(-c2ccc3cnc(NC(=O)[C@H]4C[C@H](N5CCOCC5)C4)nc3c2)o1 [Compound 1462, trans-N-(7-(2-Methyloxazol-5-yl)quinazolin-2-yl)-3-morpholinocyclobutane-1-carboxamide] | > 10 µM | 14.5% | > 10 µM | 0.37 µM | 0.707 µM | > 10 µM | 13.6% | > 10 µM | 0% | 20.9% |
| CC(C(=O)Nc1ncc2ccc(-c3cnn(C)c3)cc2n1)N1CCCCC1 (stereo not drawn) [Compound 978, N-(7-(1-Methyl-1H-pyrazol-4-yl)quinazolin-2-yl)-2-(piperidin-1-yl)propanamide] | 2.73 µM | – | > 10 µM | 0.171 µM | 0.087 µM | > 10 µM | 37.2% | > 10 µM | 6.9% | 50% |
| Cc1ncc(C(=O)Nc2cc3cc(-c4cnc(C)n4C)cnc3cn2)s1 [Compound 3167, N-(3-(1,2-Dimethyl-1H-imidazol-5-yl)-1,7-naphthyridin-6-yl)-2-methylthiazole-5-carboxamide] | 2.04 µM | – | > 10 µM | 0.037 µM | > 10 µM | > 10 µM | 0% | > 10 µM | 5.4% | 8.1% |
| Cn1cc(-c2ccc3cnc(NC(=O)C4CCN(S(C)(=O)=O)CC4)nc3c2)cn1 [Compound 979, N-(7-(1-methyl-1H-pyrazol-4-yl)quinazolin-2-yl)-1-(methylsulfonyl)piperidine-4-carboxamide] | > 10 µM | 23.2% | > 10 µM | > 10 µM | > 10 µM | > 10 µM | 20.3% | > 10 µM | 6.4% | 16.7% |
| CN1CCCN(c2cc(C(=O)Nc3cc4cc(-c5cn(C)nn5)cnc4cn3)ccn2)CC1 [Compound 3099, 2-(4-Methyl-1,4-diazepan-1-yl)-N-(3-(1-methyl-1H-1,2,3-triazol-4-yl)-1,7-naphthyridin-6-yl)isonicotinamide] | > 10 µM | 44.4% | > 10 µM | 0.154 µM | > 10 µM | 0.696 µM | – | > 10 µM | 0% | 29.6% |
| CO[C@H]1CC[C@H](C(=O)Nc2cc3cc(-c4nnc(C)s4)cnc3cn2)CC1 [Compound 3425, trans-4-Methoxy-N-(3-(5-methyl-1,3,4-thiadiazol-2-yl)-1,7-naphthyridin-6-yl)cyclohexane-1-carboxamide] | > 10 µM | 19.3% | > 10 µM | 0.157 µM | 2.29 µM | > 10 µM | 0% | > 10 µM | 9% | 29.9% |
| CC(C)Oc1ccc(C(=O)Nc2ncc3ccc(-c4cnc5n4CCN(C)C5)cc3n2)cc1 [Compound 4577, 4-Isopropoxy-N-(7-(7-methyl-5,6,7,8-tetrahydroimidazo[1,2-a]pyrazin-3-yl)quinazolin-2-yl)benzamide] | > 10 µM | 42.7% | > 10 µM | 0.175 µM | > 10 µM | > 10 µM | 28.9% | > 10 µM | 2.6% | 19.7% |
| CN1CC(COc2cncc(-c3ccc4cnc(NC(=O)c5ccc(F)cc5)cc4n3)n2)C1 [Compound 4564, 4-fluoro-N-(2-(6-((1-methylazetidin-3-yl)methoxy)pyrazin-2-yl)-1,6-naphthyridin-7-yl)benzamide] | > 10 µM | 26.8% | > 10 µM | 1.03 µM | > 10 µM | > 10 µM | 33.3% | > 10 µM | 0% | 21.1% |
| Cn1ncc(-c2cnc3cnc(NC(=O)c4ccnc(N5CCOCC5)c4)cc3c2)c1CN1CCOCC1 [Compound 3034, N-(3-(1-Methyl-5-(morpholinomethyl)-1H-pyrazol-4-yl)-1,7-naphthyridin-6-yl)-2-morpholinoisonicotinamide] | > 10 µM | 31.8% | > 10 µM | 0.119 µM | > 10 µM | > 10 µM | 0% | > 10 µM | 9.5% | 10.5% |
| CN1CCc2ccc(C(=O)Nc3cc4cc(-c5cnn(C)c5)cnc4cn3)cc2C1 [Compound 2922, 2-Methyl-N-(3-(1-methyl-1H-pyrazol-4-yl)-1,7-naphthyridin-6-yl)-1,2,3,4-tetrahydroisoquinoline-7-carboxamide] | > 10 µM | 47.2% | > 10 µM | 0.036 µM | > 10 µM | 2.42 µM | – | > 10 µM | 3.8% | 28.8% |
| CC(C)Oc1ccc(C(=O)Nc2cc3cc(-c4cnc5n4CCNC5)cnc3cn2)cc1 [Compound 3240, 4-Isopropoxy-N-(3-(5,6,7,8-tetrahydroimidazo[1,2-a]pyrazin-3-yl)-1,7-naphthyridin-6-yl)benzamide] | > 10 µM | 15.9% | > 10 µM | 1.05 µM | > 10 µM | > 10 µM | 0% | > 10 µM | 10.5% | 18.6% |
| Cc1ncc(-c2ccc3cnc(NC(=O)N4CCC(N5CCOCC5)CC4)nc3c2)o1 [Compound 1472, N-(7-(2-Methyloxazol-5-yl)quinazolin-2-yl)-4-morpholinopiperidine-1-carboxamide] | > 10 µM | 33.9% | > 10 µM | 0.246 µM | 2.33 µM | > 10 µM | 1.6% | > 10 µM | 7.6% | 16.7% |
| CC(C)Oc1ccc(C(=O)Nc2cc3cc(-c4cnc5n4CCNC5)ncc3cn2)cc1 [Compound 4150, 4-Isopropoxy-N-(6-(5,6,7,8-tetrahydroimidazo[1,2-a]pyrazin-3-yl)-2,7-naphthyridin-3-yl)benzamide] | 3.57 µM | – | > 10 µM | 0.053 µM | 5.14 µM | 2.85 µM | – | > 10 µM | 4.6% | 32.7% |
| CNC(=O)c1ccc(C(=O)Nc2cc3cc(-c4cn(C)nn4)ncc3cn2)cn1 [Compound 3999, N^2-Methyl-N^5-(6-(1-methyl-1H-1,2,3-triazol-4-yl)-2,7-naphthyridin-3-yl) pyridine-2,5-dicarboxamide] | > 10 µM | 34.6% | > 10 µM | 0.454 µM | > 10 µM | > 10 µM | 22% | > 10 µM | 4.1% | 27.3% |
